Experimental data taken from patent US20260108646A1, “METHOD AND DEVICE FOR DI[…]/OR S[…]” (SCHWING TECHNOLOGIES GMBH, priority 2022, published 2026).

Legend:
[1] = test system: Geobacillus stearothermophilus spores; experiment: Validation tests for disinfection of bio-indicator spore strips SAL 10^5; type: cell-based; settings: 50-55° C.
[2] = test system: Geobacillus stearothermophilus spores; experiment: Validation tests for disinfection of laboratory utensils sprinkled with spore suspension SAL 10^6; type: cell-based; settings: for Biological Result #not sterile/#tested: PES in solution 4 %
[3] = test system: human patellar tendon allografts; settings: in vitro study, human patellar tendon allografts [98]; cited from earlier work

For `CC(=O)OO` [PES, peracetic acid], the “growth or proliferation of the spores after treatment” value ([1]; all spore strips tested at different PES concentrations and different processing times) was “no growth or proliferation of the spores could be detected”, the “Biological Result #not sterile/#tested” value ([1]; test 1, PES in solution 6 %, PES in process chamber 3 g/m^3, process duration 240 min) was 0/2 and the “Biological Result #not sterile/#tested” value ([1]; test 2, PES in solution 6 %, PES in process chamber 3 g/m^3, process duration 120 min) was 0/1. The “Biological Result #not sterile/#tested” value ([1]; test 3, PES in solution 6 %, PES in process chamber 1.7 g/m^3, process duration 150 min) was 0/2, the “Biological Result #not sterile/#tested” value ([1]; test 4, PES in solution 4 %, PES in process chamber 2 g/m^3, process duration 120 min) was 0/1 and the “Biological Result #not sterile/#tested” value ([1]; test 5, PES in solution 4 %, PES in process chamber 1.9 g/m^3, process duration 120 min) was 0/2. The “Biological Result #not sterile/#tested” value ([1]; test 6, PES in solution 4 %, PES in process chamber 1.9 g/m^3, process duration 90 min) was 0/2, the “Biological Result #not sterile/#tested” value ([1]; test 7, PES in solution 4 %, PES in process chamber 1.9 g/m^3, process duration 60 min) was 0/4 and the “Biological Result #not sterile/#tested” value ([1]; test 8, PES in solution 4 %, PES in process chamber 1.9 g/m^3, process duration 45 min) was 0/1. The “Biological Result #not sterile/#tested” value ([1]; test 9, PES in solution 4 %, PES in process chamber 1.9 g/m^3, process duration 40 min) was 0/2, the “Biological Result #not sterile/#tested” value ([1]; test 10, PES in solution 4 %, PES in process chamber 1.9 g/m^3, process duration 30 min) was 0/2 and the “Biological Result #not sterile/#tested” value ([1]; test 11, PES in solution 4 %, PES in process chamber 1.9 g/m^3, process duration 20 min) was 0/2. For the same compound, the “Biological Result #not sterile/#tested” value ([1]; test 12, PES in solution 4 %, PES in process chamber 1.9 g/m^3, process duration 15 min) was 0/1, the “Biological Result #not sterile/#tested” value ([1]; test 13, PES in solution 4 %, PES in process chamber 1.9 g/m^3, process duration 10 min) was 0/1 and the “Biological Result #not sterile/#tested” value ([1]; test 14, PES in solution 4 %, PES in process chamber 1.9 g/m^3, process duration 5 min) was 0/1. For the same compound, the “Biological Result #not sterile/#tested” value ([1]; test 15, PES in solution 4 %, PES in process chamber 1.7 g/m^3, process duration 20 min) was 0/1, the “Biological Result #not sterile/#tested” value ([1]; test 16, PES in solution 4 %, PES in process chamber 1.7 g/m^3, process duration 15 min) was 0/1 and the “Biological Result #not sterile/#tested” value ([1]; test 17, PES in solution 4 %, PES in process chamber 1.5 g/m^3, process duration 240 min) was 0/2. For the same compound, the “Biological Result #not sterile/#tested” value ([1]; test 18, PES in solution 4 %, PES in process chamber 1.5 g/m^3, process duration 150 min) was 0/2, the “Biological Result #not sterile/#tested” value ([1]; test 19, PES in solution 4 %, PES in process chamber 1.3 g/m^3, process duration 20 min) was 0/1 and the “Biological Result #not sterile/#tested” value ([1]; test 20, PES in solution 4 %, PES in process chamber 1.3 g/m^3, process duration 15 min) was 0/1. For the same compound, the “Biological Result #not sterile/#tested” value ([1]; test 21, PES in solution 4 %, PES in process chamber 0.94 g/m^3, process duration 60 min) was 0/5, the “Biological Result #not sterile/#tested” value ([1]; test 22, PES in solution 4 %, PES in process chamber 0.94 g/m^3, process duration 40 min) was 0/1 and the “Biological Result #not sterile/#tested” value ([1]; test 23, PES in solution 4 %, PES in process chamber 0.94 g/m^3, process duration 30 min) was 0/2. For the same compound, the “Biological Result #not sterile/#tested” value ([1]; test 24, PES in solution 4 %, PES in process chamber 0.94 g/m^3, process duration 20 min) was 0/2, the “Biological Result #not sterile/#tested” value ([1]; test 25, PES in solution 4 %, PES in process chamber 0.94 g/m^3, process duration 15 min) was 0/1 and the “Biological Result #not sterile/#tested” value ([1]; test 26, PES in solution 4 %, PES in process chamber 0.94 g/m^3, process duration 10 min) was 0/1. For the same compound, the “Biological Result #not sterile/#tested” value ([1]; test 27, PES in solution 4 %, PES in process chamber 0.94 g/m^3, process duration 5 min) was 0/1, the “Biological Result #not sterile/#tested” value ([1]; test 28, PES in solution 4 %, PES in process chamber 0.47 g/m^3, process duration 60 min) was 0/1 and the “Biological Result #not sterile/#tested” value ([1]; test 29, PES in solution 4 %, PES in process chamber 0.47 g/m^3, process duration 30 min) was 0/1. For the same compound, the “Biological Result #not sterile/#tested” value ([1]; test 30, PES in solution 4 %, PES in process chamber 0.47 g/m^3, process duration 15 min) was 0/1, the “Biological Result #not sterile/#tested” value ([1]; test 31, PES in solution 4 %, PES in process chamber 0.47 g/m^3, process duration 10 min) was 0/1 and the “Biological Result #not sterile/#tested” value ([1]; test 32, PES in solution 4 %, PES in process chamber 0.47 g/m^3, process duration 5 min) was 0/1. The “Biological Result #not sterile/#tested” value ([2]; test 5, PES in process chamber 1.9 g/m^3, process duration 120 min) was 0/4, the “Biological Result #not sterile/#tested” value ([2]; test 7, PES in process chamber 1.9 g/m^3, process duration 60 min) was 0/4 and the “Biological Result #not sterile/#tested” value ([2]; test 8, PES in process chamber 1.9 g/m^3, process duration 45 min) was 0/4. The “Biological Result #not sterile/#tested” value ([2]; test 12, PES in process chamber 1.9 g/m^3, process duration 15 min) was 0/4, the “Biological Result #not sterile/#tested” value ([2]; test 13, PES in process chamber 1.9 g/m^3, process duration 10 min) was 0/4 and the “Biological Result #not sterile/#tested” value ([2]; test 14, PES in process chamber 1.9 g/m^3, process duration 5 min) was 0/4. The “Biological Result #not sterile/#tested” value ([2]; test 15, PES in process chamber 1.7 g/m^3, process duration 20 min) was 0/4, the “Biological Result #not sterile/#tested” value ([2]; test 16, PES in process chamber 1.7 g/m^3, process duration 15 min) was 0/4 and the “Biological Result #not sterile/#tested” value ([2]; test 19, PES in process chamber 1.3 g/m^3, process duration 20 min) was 0/4. For the same compound, the “Biological Result #not sterile/#tested” value ([2]; test 20, PES in process chamber 1.3 g/m^3, process duration 15 min) was 0/4, the “Biological Result #not sterile/#tested” value ([2]; test 21, PES in process chamber 0.94 g/m^3, process duration 60 min) was 0/4 and the “Biological Result #not sterile/#tested” value ([2]; test 22, PES in process chamber 0.94 g/m^3, process duration 40 min) was 0/4. For the same compound, the “Biological Result #not sterile/#tested” value ([2]; test 23, PES in process chamber 0.94 g/m^3, process duration 30 min, not sterile: pipette) was “(pipette) 1/8”, the “Biological Result #not sterile/#tested” value ([2]; test 24, PES in process chamber 0.94 g/m^3, process duration 20 min) was 0/8 and the “Biological Result #not sterile/#tested” value ([2]; test 25, PES in process chamber 0.94 g/m^3, process duration 15 min, not sterile: pipette) was “(pipette) 1/4”. The “Biological Result #not sterile/#tested” value ([2]; test 26, PES in process chamber 0.94 g/m^3, process duration 10 min) was 0/4, the “Biological Result #not sterile/#tested” value ([2]; test 27, PES in process chamber 0.94 g/m^3, process duration 5 min, not sterile: pipette) was “(pipette) 1/4” and the “Biological Result #not sterile/#tested” value ([2]; test 28, PES in process chamber 0.47 g/m^3, process duration 60 min) was 0/4. The “Biological Result #not sterile/#tested” value ([2]; test 29, PES in process chamber 0.47 g/m^3, process duration 30 min) was 0/4, the “Biological Result #not sterile/#tested” value ([2]; test 30, PES in process chamber 0.47 g/m^3, process duration 15 min, not sterile: Eppi) was “(Eppi) 1/4” and the “Biological Result #not sterile/#tested” value ([2]; test 31, PES in process chamber 0.47 g/m^3, process duration 10 min, not sterile: pipette) was “(pipette) 1/4”. For the same compound, the “Biological Result #not sterile/#tested” value ([2]; test 32, PES in process chamber 0.47 g/m^3, process duration 5 min, not sterile: mask, pipette) was “(mask, pipette) 2/4”, the “spore growth after seven days in nutrient solution” value ([2]; various tests, relatively low PES concentration in the process chamber and short process duration) was “spore growth was observed after seven days” and the “cytotoxic and pro-inflammatory effects” value [3] was “neither cytotoxic nor pro-inflammatory effects”.
